Assay results as given in PubChem BioAssay AID2060484 (Molecular Pharmacology Branch, DTP, NCI, 2025).

System: SUM149PT spheroids with HUVEC/MSC, viability
Assay: Anticancer human tumor SUM149PT cell line growth inhibition [GQUAD];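 also: spheroids exposed to drugs for seven days before readout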;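 as to viability, T/C: percent viability relative to DMSO vehicle control taken as 100%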
Conditions: for IC50: curve of first compound; for viability, T/C: stronger effect = lower value
Outline: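 Tumor cells were grown as complex spheroids with HUVEC endothelial cells and mesenchymal stem cells as stroma. G-quadruplex stabilizers were combined with targeted agents over half-log dilutions from near the clinical Cmax, or from 10 microM.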

[1] = second compound 0.0316 µM, first compound 0.0316 µM
[2] = second compound 0.0316 µM, first compound 0.1 µM
[3] = second compound 0.0316 µM, first compound 0.316 µM
[4] = second compound 0.0316 µM, first compound 1 µM
[5] = second compound 0.0316 µM, first compound 3.16 µM
[6] = second compound 0.0316 µM, first compound 10 µM
[7] = second compound 0.1 µM, first compound 0.0316 µM
[8] = second compound 0.1 µM, first compound 0.1 µM
[9] = second compound 0.1 µM, first compound 0.316 µM
[10] = second compound 0.1 µM, first compound 1 µM
[11] = second compound 0.1 µM, first compound 3.16 µM
[12] = second compound 0.1 µM, first compound 10 µM
[13] = second compound 0.316 µM, first compound 0.0316 µM
[14] = second compound 0.316 µM, first compound 0.1 µM
[15] = second compound 0.316 µM, first compound 0.316 µM
[16] = second compound 0.316 µM, first compound 1 µM
[17] = second compound 0.316 µM, first compound 3.16 µM
[18] = second compound 0.316 µM, first compound 10 µM
[19] = second compound 1 µM, first compound 0.0316 µM
[20] = second compound 1 µM, first compound 0.1 µM
[21] = second compound 1 µM, first compound 0.316 µM
[22] = second compound 1 µM, first compound 1 µM
[23] = second compound 1 µM, first compound 3.16 µM
[24] = second compound 1 µM, first compound 10 µM
[25] = second compound 3.16 µM, first compound 0.0316 µM
[26] = second compound 3.16 µM, first compound 0.1 µM
[27] = second compound 3.16 µM, first compound 0.316 µM
[28] = second compound 3.16 µM, first compound 1 µM
[29] = second compound 3.16 µM, first compound 3.16 µM
[30] = second compound 3.16 µM, first compound 10 µM
[31] = second compound 10 µM, first compound 0.0316 µM
[32] = second compound 10 µM, first compound 0.1 µM
[33] = second compound 10 µM, first compound 0.316 µM
[34] = second compound 10 µM, first compound 1 µM
[35] = second compound 10 µM, first compound 3.16 µM
[36] = second compound 10 µM, first compound 10 µM

Question: Which results are given for `CCCS(=O)(=O)Nc1ccc(F)c(C(=O)c2c[nH]c3ncc(-c4ccc(Cl)cc4)cc23)c1F` + Cc1cnc(CNC(=O)c2c(=O)c3ccc(N4CCCN(C)CC4)nc3n3c2sc2ccccc23)cn1?
Answer: IC50 (second compound 0.0316 µM): 5870 nM; IC50 (second compound 0.1 µM): 3100 nM; IC50 (second compound 0.316 µM): 1450 nM; IC50 (second compound 1 µM): < 31.6 nM; IC50 (second compound 3.16 µM): < 31.6 nM; IC50 (second compound 10 µM): < 31.6 nM; viability, T/C [1]: 80%; viability, T/C [2]: 76.5%; viability, T/C [3]: 96.1%; viability, T/C [4]: 88.6%; viability, T/C [5]: 67.5%; viability, T/C [6]: 34.9%; viability, T/C [7]: 67.8%; viability, T/C [8]: 68.3%; viability, T/C [9]: 79.3%; viability, T/C [10]: 66.5%; viability, T/C [11]: 50%; viability, T/C [12]: 33.2%; viability, T/C [13]: 51.9%; viability, T/C [14]: 57.5%; viability, T/C [15]: 56.5%; viability, T/C [16]: 52.9%; viability, T/C [17]: 43.2%; viability, T/C [18]: 31%; viability, T/C [19]: 51.5%; viability, T/C [20]: 46%; viability, T/C [21]: 44.6%; viability, T/C [22]: 46.6%; viability, T/C [23]: 37.7%; viability, T/C [24]: 25.4%; viability, T/C [25]: 37.5%; viability, T/C [26]: 38%; viability, T/C [27]: 43.1%; viability, T/C [28]: 38%; viability, T/C [29]: 37%; viability, T/C [30]: 23.4%; viability, T/C [31]: 0.2%; viability, T/C [32]: 11.8%; viability, T/C [33]: 0.67%; viability, T/C [34]: 11.7%; viability, T/C [35]: 2.28%; viability, T/C [36]: 2.88%

Question: `COc1ccc([C@@H](O)c2cc(-c3ncnc4cc(N5CCOCC5)ccc34)c(F)cc2Cl)nn1` + Cc1[nH]c2ccc(F)cc2c1-c1nc2c3cccnc3c3ncccc3c2[nH]1 was tested. Which IC50 (second compound 0.0316 µM) did it give?
Answer: 761 nM

Question: What about the IC50 (second compound 0.1 µM) of the same compound?
Answer: 1070 nM

Question: What about the IC50 (second compound 0.316 µM) of the same compound?
Answer: 1130 nM

Question: What about the IC50 (second compound 1 µM) of the same compound?
Answer: 1160 nM

Question: And the IC50 (second compound 3.16 µM)?
Answer: 1050 nM

Question: And the IC50 (second compound 10 µM)?
Answer: 874 nM

Question: And the viability, T/C [1]?
Answer: 95.7%

Question: And the viability, T/C [2]?
Answer: 90.1%

Question: And the viability, T/C [3]?
Answer: 65.6%

Question: And the viability, T/C [4]?
Answer: 45.8%

Question: And the viability, T/C [5]?
Answer: 29.9%

Question: And the viability, T/C [6]?
Answer: 23.9%

Question: What about the viability, T/C [7] of the same compound?
Answer: 92.9%

Question: What about the viability, T/C [8] of the same compound?
Answer: 92.9%

Question: And the viability, T/C [9]?
Answer: 79.3%

Question: And the viability, T/C [10]?
Answer: 52.3%

Question: And the viability, T/C [11]?
Answer: 29.4%

Question: And the viability, T/C [12]?
Answer: 27.6%

Question: And the viability, T/C [13]?
Answer: 104%

Question: What about the viability, T/C [14] of the same compound?
Answer: 87.3%

Question: What about the viability, T/C [15] of the same compound?
Answer: 83%

Question: And the viability, T/C [16]?
Answer: 47.1%

Question: What about the viability, T/C [17] of the same compound?
Answer: 39.4%

Question: And the viability, T/C [18]?
Answer: 28.7%

Question: What about the viability, T/C [19] of the same compound?
Answer: 102%

Question: What about the viability, T/C [20] of the same compound?
Answer: 102%

Question: What about the viability, T/C [21] of the same compound?
Answer: 82.9%

Question: What about the viability, T/C [22] of the same compound?
Answer: 52.4%

Question: What about the viability, T/C [23] of the same compound?
Answer: 32.5%

Question: What about the viability, T/C [24] of the same compound?
Answer: 23.9%

Question: And the viability, T/C [25]?
Answer: 95.2%

Question: And the viability, T/C [26]?
Answer: 78.9%

Question: What about the viability, T/C [27] of the same compound?
Answer: 76.7%

Question: What about the viability, T/C [28] of the same compound?
Answer: 49.8%

Question: And the viability, T/C [29]?
Answer: 31.8%

Question: What about the viability, T/C [30] of the same compound?
Answer: 25.9%

Question: And the viability, T/C [31]?
Answer: 89.8%

Question: And the viability, T/C [32]?
Answer: 82.6%

Question: And the viability, T/C [33]?
Answer: 71.7%

Question: What about the viability, T/C [34] of the same compound?
Answer: 46.3%

Question: And the viability, T/C [35]?
Answer: 30.9%

Question: What about the viability, T/C [36] of the same compound?
Answer: 23.3%
